For 24 compounds, Emax and EC50 results are on record in patent publication US11884676B2, “Substituted pyrimido[1,2-b]pyridazines as positive allosteric modulators of the muscarinic acetylcholine receptor M4” (Vanderbilt University, priority 2020, dated 2024).

The target of this assay is T1, Human M4 (Homo sapiens, UniProt P08173).
T1 construct: expressed in transfected cells
T1 sequence (P08173 1-479): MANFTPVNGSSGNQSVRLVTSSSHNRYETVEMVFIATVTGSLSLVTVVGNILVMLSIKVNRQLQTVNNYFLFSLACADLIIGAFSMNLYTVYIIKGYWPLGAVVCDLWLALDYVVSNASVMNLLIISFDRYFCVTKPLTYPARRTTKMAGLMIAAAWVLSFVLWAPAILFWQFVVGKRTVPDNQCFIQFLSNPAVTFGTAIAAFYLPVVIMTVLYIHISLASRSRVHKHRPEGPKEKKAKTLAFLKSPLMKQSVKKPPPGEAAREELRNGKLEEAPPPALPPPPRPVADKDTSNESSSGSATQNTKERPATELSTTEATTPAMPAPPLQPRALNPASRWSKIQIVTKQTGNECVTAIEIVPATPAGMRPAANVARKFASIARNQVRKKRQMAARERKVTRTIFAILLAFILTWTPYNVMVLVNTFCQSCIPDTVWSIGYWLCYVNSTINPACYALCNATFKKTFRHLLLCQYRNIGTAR
Put plainly: mAChR M4 cell-based functional assay (calcium flux, PAM mode). To be noted: hM4-Gqi5 CHO-K1 cells; for Emax at 30 µM: CHO-K1, % ACh maximum at 30 μM; for EC50: concentration-dependent increase in the EC20 acetylcholine response. The method in brief:
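PAM potency (EC50) and Emax came from four-parameter fits of the rise in EC20 acetylcholine-evoked calcium signal (Fluo-4, FDSS, 1 Hz). Human M4/Gqi5 CHO-K1 stable line; 11-point 1:3 compound series preceded ACh EC20 addition at 144 s, with EC80 ACh added at 230 s.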
A general note: A change in cytosolic calcium serves as a functional read-out for many receptors and channels.

What is called Emax is the greatest response seen or fitted, relative to the assay's reference. A word on the EC50: it is the midpoint of the concentration-response curve. Regarding `[2H]C1([2H])Oc2ccc(O[C@@H]3CCN(c4nn5c(=O)cc(COC)nc5c(C)c4C)C[C@@H]3F)cc2OC1([2H])[2H]` [Compound 121, 7-((3S,4R)-4-((2,3-dihydrobenzo[b][1,4]dioxin-6-yl-2,2,3,3-d4)oxy)-3-fluoropiperidin-1-yl)-2-(methoxymethyl)-8,9-dimethyl-4H-pyrimido[1,2-b]pyridazin-4-one], the Emax at 30 µM came out at 111% and the EC50 was 42 nM. As to `Cc1cc2nccc(=O)n2nc1N1CC[C@H](Oc2cc(F)c3c(c2)OCCO3)C[C@H]1C` [Compound 131, 7-((2R,4S)-4-((8-fluoro-2,3-dihydrobenzo[b][1,4]dioxin-6-yl)oxy)-2-methylpiperidin-1-yl)-8-methyl-4H-pyrimido[1,2-b]pyridazin-4-one], the maximum response (Emax) at 30 µM is 119% and the EC50 is 203 nM. On the same counts, the results for `[2H]C1([2H])Oc2ccc(O[C@@H]3CCN(c4nn5c(=O)ccnc5cc4C)C[C@H]3F)cc2OC1([2H])[2H]` [Compound 41, 7-((3R,4R)-4-((2,3-dihydrobenzo[b][1,4]dioxin-6-yl-2,2,3,3-d4)oxy)-3-fluoropiperidin-1-yl)-8-methyl-4H-pyrimido[1,2-b]pyridazin-4-one] are 114% and 159 nM. Taken in the same sequence, the figures for `Cc1cc2nccc(=O)n2nc1N1CC[C@@H](Oc2ccc3c(c2)OCCC3)[C@H](F)C1` [Compound 57, 7-((3R,4R)-4-(chroman-7-yloxy)-3-fluoropiperidin-1-yl)-8-methyl-4H-pyrimido[1,2-b]pyridazin-4-one] were 83% and 149 nM.

For the compound `[2H]C1(Oc2ccc3c(c2)OC([2H])([2H])C([2H])([2H])O3)CCN(c2nn3c(=O)cc(C)nc3c(C)c2C)CC1` [Compound 94, 7-(4-((2,3-dihydrobenzo[b][1,4]dioxin-6-yl-2,2,3,3-d4)oxy)piperidin-1-yl-4-d)-2,8,9-trimethyl-4H-pyrimido[1,2-b]pyridazin-4-one], the maximal response (Emax) at 30 µM is 84% and the EC50 was determined as 30 nM. In the case of `CCc1ccc(OC2CCN(c3nn4c(=O)ccnc4cc3C)CC2)cc1` [Compound 89, 7-(4-(4-ethylphenoxy)piperidin-1-yl)-8-methyl-4H-pyrimido[1,2-b]pyridazin-4-one], the Emax at 30 µM came to 76% and the EC50 is 503 nM. Consider `[2H]C1([2H])Oc2ccc(O[C@H]3CCN(c4nn5c(=O)ccnc5cc4C)C[C@H]3F)cc2OC1([2H])[2H]` [Compound 112, 7-((3R,4S)-4-((2,3-dihydrobenzo[b][1,4]dioxin-6-yl-2,2,3,3-d4)oxy)-3-fluoropiperidin-1-yl)-8-methyl-4H-pyrimido[1,2-b]pyridazin-4-one], for which the Emax at 30 µM turned out to be 108% and the EC50 came to 75 nM. Consider `Cc1ccc(OC2CCN(c3nn4c(=O)ccnc4cc3C)CC2)cc1F` [Compound 88, 7-(4-(3-fluoro-4-methylphenoxy)piperidin-1-yl)-8-methyl-4H-pyrimido[1,2-b]pyridazin-4-one], for which the maximal response (Emax) at 30 µM is 77% and the concentration giving a half-maximal response (EC50) was determined as 383 nM. Taken in the same sequence, the figures for `[2H]C1(Oc2ccc3c(c2)OCCO3)CCN(c2nn3c(=O)cc(C)nc3cc2C)CC1` [Compound 62, 7-(4-((2,3-dihydrobenzo[b][1,4]dioxin-6-yl)oxy)piperidin-1-yl-4-d)-2,8-dimethyl-4H-pyrimido[1,2-b]pyridazin-4-one] were 99% and 47 nM.

Turning to `Cc1cc2nccc(=O)n2nc1N1CC[C@H](Oc2ccc3c(c2)OCCO3)C[C@H]1C` (stereo in doubt) [Compound 107, 7-((2R,4S)-4-((2,3-dihydrobenzo[b][1,4]dioxin-6-yl)oxy)-2-methylpiperidin-1-yl)-8-methyl-4H-pyrimido[1,2-b]pyridazin-4-one], the maximal effect (Emax) at 30 µM is 55%.

In the case of `Cc1c(N2CCC(Oc3ccc(F)cc3)CC2)nn2c(=O)cc(C(F)F)nc2c1C` [Compound 84, 2-(difluoromethyl)-7-(4-(4-fluorophenoxy)piperidin-1-yl)-8,9-dimethyl-4H-pyrimido[1,2-b]pyridazin-4-one], the maximum response (Emax) at 30 µM turned out to be 86% and the EC50 is 141 nM.

In the case of `[2H]C1(Oc2ccc3c(c2)OC([2H])([2H])C([2H])([2H])O3)CCN(c2nn3c(=O)ccnc3c(C)c2C2CC2)CC1` [Compound 104, 8-cyclopropyl-7-(4-((2,3-dihydrobenzo[b][1,4]dioxin-6-yl-2,2,3,3-d4)oxy)piperidin-1-yl-4-d)-9-methyl-4H-pyrimido[1,2-b]pyridazin-4-one], the Emax at 30 µM is 87% and the EC50 amounted to 1410 nM. Taken in the same sequence, the figures for `[2H]C1([2H])Oc2ccc(O[C@H]3CCN(c4nn5c(=O)cc(COC)nc5c(C)c4C)C[C@H]3F)cc2OC1([2H])[2H]` [Compound 122, 7-((3R,4S)-4-((2,3-dihydrobenzo[b][1,4]dioxin-6-yl-2,2,3,3-d4)oxy)-3-fluoropiperidin-1-yl)-2-(methoxymethyl)-8,9-dimethyl-4H-pyrimido[1,2-b]pyridazin-4-one] were 111% and 94 nM. Consider `[2H]C1(Oc2ccc3c(c2)OC([2H])([2H])C([2H])([2H])O3)CCN(c2nn3c(=O)cc(CC)nc3c(C)c2C)CC1` [Compound 98, 7-(4-((2,3-dihydrobenzo[b][1,4]dioxin-6-yl-2,2,3,3-d4)oxy)piperidin-1-yl-4-d)-2-ethyl-8,9-dimethyl-4H-pyrimido[1,2-b]pyridazin-4-one], for which the Emax at 30 µM was 90% and the concentration giving a half-maximal response (EC50) is 64 nM. As for `[2H]C1([2H])Oc2ccc(O[C@@H]3CCN(c4nn5c(=O)ccnc5cc4C)C[C@@H]3F)cc2OC1([2H])[2H]` [Compound 111, 7-((3S,4R)-4-((2,3-dihydrobenzo[b][1,4]dioxin-6-yl-2,2,3,3-d4)oxy)-3-fluoropiperidin-1-yl)-8-methyl-4H-pyrimido[1,2-b]pyridazin-4-one], the maximal effect (Emax) at 30 µM was 106% and the EC50 came out at 67 nM. On the same counts, the results for `Cc1c(N2CCC(Oc3ccc4c(c3)OCCO4)CC2)nn2c(=O)ccnc2c1C1CC1` [Compound 20, 9-Cyclopropyl-7-(4-((2,3-dihydrobenzo[b][1,4]dioxin-6-yl-2,2,3,3-d4)oxy)piperidin-1-yl)-8-methyl-4H-pyrimido[1,2-b]pyridazin-4-one] are 81% and 172 nM. On the same counts, the results for `Cc1cc(=O)n2nc(N3CC[C@H](Oc4ccc5c(c4)OCCO5)[C@H](F)C3)c(C)cc2n1` [Compound 44, 7-((3R,4S)-4-((2,3-dihydrobenzo[b][1,4]dioxin-6-yl)oxy)-3-fluoropiperidin-1-yl)-2,8-dimethyl-4H-pyrimido[1,2-b]pyridazin-4-one] are 79% and 224 nM. Taken in the same sequence, the figures for `COc1ncc(OC2CCN(c3nn4c(=O)ccnc4cc3C)CC2)cc1C` [Compound 75, 7-(4-((6-methoxy-5-methylpyridin-3-yl)oxy)piperidin-1-yl)-8-methyl-4H-pyrimido[1,2-b]pyridazin-4-one] were 84% and 1510 nM.

In the case of `[2H]C1([2H])Oc2ccc(OC3CCN(c4nn5c(=O)ccnc5cc4C)CC3)cc2OC1([2H])[2H]` [Compound 1, 7-(4-((2,3-Dihydrobenzo[b][1,4]dioxin-6-yl-2,2,3,3-d4)oxy)piperidin-1-yl)-8-methyl-4H-pyrimido[1,2-b]pyridazin-4-one], the Emax at 30 µM turned out to be 91% and the EC50 is 130 nM. Taken in the same sequence, the figures for `Cc1cc2nccc(=O)n2nc1N1CC[C@@H](Oc2ccc3c(c2)CCOC3)[C@H](F)C1` [Compound 54, 7-((3R,4R)-3-fluoro-4-(isochroman-6-yloxy)piperidin-1-yl)-8-methyl-4H-pyrimido[1,2-b]pyridazin-4-one] were 89% and 319 nM. Taken in the same sequence, the figures for `[2H]C1([2H])Oc2ccc(OC3CCN(c4nn5c(=O)cc(C(F)(F)F)nc5c(C)c4C)CC3)cc2OC1([2H])[2H]` [Compound 7, 7-(4-((2,3-Dihydrobenzo[b][1,4]dioxin-6-yl-2,2,3,3-d4)oxy)piperidin-1-yl)-8,9-dimethyl-2-(trifluoromethyl)-4H-pyrimido[1,2-b]pyridazin-4-one] were 93% and 70 nM. Taken in the same sequence, the figures for `COCc1ccc(OC2CCN(c3nn4c(=O)ccnc4cc3C)CC2)cn1` [Compound 76, 7-(4-((6-(methoxymethyl)pyridin-3-yl)oxy)piperidin-1-yl)-8-methyl-4H-pyrimido[1,2-b]pyridazin-4-one] were 60% and more than 10000 nM. On to `[2H]C1(Oc2ccc3c(c2)OC([2H])([2H])C([2H])([2H])O3)CCN(c2nn3c(=O)cc(C)nc3cc2C)CC1` [Compound 40, 7-(4-((2,3-dihydrobenzo[b][1,4]dioxin-6-yl-2,2,3,3-d4)oxy)piperidin-1-yl-4-d)-2,8-dimethyl-4H-pyrimido[1,2-b]pyridazin-4-one], for which the Emax at 30 µM was 118% and the EC50 stood at 60 nM. On the same counts, the results for `[2H]C1([2H])Oc2ccc(OC3CCN(c4nn5c(=O)ccnc5c(C)c4C4CC4)CC3)cc2OC1([2H])[2H]` [Compound 105, 8-cyclopropyl-7-(4-((2,3-dihydrobenzo[b][1,4]dioxin-6-yl-2,2,3,3-d4)oxy)piperidin-1-yl)-9-methyl-4H-pyrimido[1,2-b]pyridazin-4-one] are 81% and 1700 nM.
